Source: ChEMBL document CHEMBL4602605, “Fluoroquinolones structural and medicinal developments (2013-2018): Where are we now?” (Bioorg Med Chem, 2019)
Converted amounts (≈) assume the structure as drawn.

Legend:
[1] = test system: HeLa; test: Growth inhibition of human HeLa cells at 50 uM after 24 to 72 hrs by trypan blue staining based assay relative to control; format: functional; conditions: read-out: GI
[2] = test system: HL-60; test: Growth inhibition of human HL60 cells at 50 uM after 24 to 72 hrs by trypan blue staining based assay relative to control; format: functional; conditions: read-out: GI
[3] = test system: B16; test: Growth inhibition of mouse B16 cells at 50 uM after 24 to 72 hrs by trypan blue staining based assay relative to control; format: functional; conditions: read-out: GI
[4] = Growth inhibition of mouse NIH/3T3 cells at 50 uM after 24 to 72 hrs by trypan blue staining based assay relative to control; format: cell-based, NIH3T3; conditions: read-out: GI
[5] = test system: Klebsiella pneumoniae; test: Antimicrobial activity against Klebsiella pneumoniae incubated overnight by broth microdilution method; format: functional
[6] = test system: Staphylococcus aureus; test: Antimicrobial activity against methicillin-resistant Staphylococcus aureus incubated overnight by broth microdilution method; format: functional
[7] = test system: Mycobacterium tuberculosis; test: Antimicrobial activity against Mycobacterium tuberculosis H37Rv incubated for 10 days by microbroth dilution method; format: functional; conditions: 240 h
[8] = test system: Mycolicibacter terrae; test: Antimicrobial activity against Mycobacterium terrae incubated for 10 days by microbroth dilution method; format: functional; conditions: 240 h
[9] = test system: Mycobacterium avium; test: Antimicrobial activity against Mycobacterium avium incubated for 10 days by microbroth dilution method; format: functional; conditions: 240 h
[10] = test system: Aspergillus flavus; test: Antimicrobial activity against Aspergillus flavus ATCC 9643 after 48 hrs by microbroth dilution method; format: functional; conditions: ATCC 9643, 48 h
[11] = test system: Candida albicans; test: Antimicrobial activity against Candida albicans ATCC 10231 after 24 hrs by microbroth dilution method; format: functional; conditions: ATCC 10231, 24 h
[12] = test system: Pseudomonas aeruginosa; test: Antimicrobial activity against Pseudomonas aeruginosa ATCC 9627 incubated for 24 hrs by microbroth dilution method; format: functional; conditions: ATCC 9627, 24 h
[13] = test system: Escherichia coli; test: Antimicrobial activity against nalidixic acid-resistant Escherichia coli clinical isolate incubated for 24 hrs by microbroth dilution method; format: functional
[14] = test system: Escherichia coli; test: Antimicrobial activity against Escherichia coli ATCC 8739 incubated for 24 hrs by microbroth dilution method; format: functional; conditions: ATCC 8739, 24 h
[15] = test system: Staphylococcus aureus; test: Antimicrobial activity against Staphylococcus aureus ATCC 33591 incubated for 24 hrs by microbroth dilution method; format: functional; conditions: ATCC 33591, 24 h
[16] = test system: Staphylococcus aureus; test: Antimicrobial activity against Staphylococcus aureus ATCC 9253 incubated for 24 hrs by microbroth dilution method; format: functional; conditions: ATCC 9253, 24 h
[17] = test system: Stachybotrys chartarum; test: Antimicrobial activity against Stachybotrys chartarum IBT 7711 after 48 hrs by microbroth dilution method; format: functional; conditions: IBT 7711, 48 h
[18] = test system: Escherichia coli; test: Antimicrobial activity against Escherichia coli O157:H7 incubated for 24 hrs by microbroth dilution method; format: functional; conditions: O157:H7, 24 h
[19] = test system: Listeria monocytogenes; test: Antimicrobial activity against Listeria monocytogenes ATCC 19115 incubated for 24 hrs by microbroth dilution method; format: functional; conditions: ATCC 19115, 24 h
[20] = test system: Escherichia coli; test: Antimicrobial activity against Escherichia coli NCTC 11954 incubated for 24 hrs by microbroth dilution method; format: functional; conditions: NCTC 11954, 24 h
[21] = test system: Salmonella enterica; test: Antimicrobial activity against Salmonella enterica ATCC 13312 incubated for 24 hrs by microbroth dilution method; format: functional; conditions: ATCC 13312, 24 h
[22] = test system: Penicillium chrysogenum; test: Antimicrobial activity against Penicillium chrysogenum ATCC 10106 after 48 hrs by microbroth dilution method; format: functional; conditions: ATCC 10106, 48 h

O=C(CSc1nnc(CN2CCN(c3cc4c(cc3F)c(=O)c(C(=O)O)cn4C3CC3)CC2)o1)c1ccc(Cl)cc1
inhibition of growth at 50 µM [1]: 100% | inhibition of growth at 50 µM [2]: 100% | inhibition of growth at 50 µM [3]: 100% | inhibition at 50 µM [4]: 100%

C[C@H]1Cn2cc(C(=O)NCCC(=O)NCCC[C@@H]3NC(=O)[C@H](CCCNC(=N)N)NC(=O)[C@H](CCCNC(=N)N)NC(=O)[C@H](CCCNC(=N)N)NC(=O)[C@@H](Cc4c[nH]c5ccccc45)NC(=O)[C@H](Cc4c[nH]c5ccccc45)NC(=O)[C@H](Cc4c[nH]c5ccccc45)NC(=O)[C@H](Cc4c[nH]c5ccccc45)NC(=O)[C@H](CCCNC(=N)N)NC3=O)c(=O)c3cc(F)c(N4CCN(C)CC4)c(c32)O1
MIC [5]: > 128 µg/mL | MIC [6]: 32 µg/mL (≈ 16.9 µM)

CCOc1cccc2cc(-c3cc4c(cc3F)c(=O)c(C(=O)O)cn4CC)c(=O)oc12
MIC [7]: 1.5 µg/mL (≈ 3.54 µM) | MIC [8]: 0.7 µg/mL (≈ 1.65 µM) | MIC [9]: 1.5 µg/mL (≈ 3.54 µM)

C[C@H]1Cn2cc(C(=O)NCCC(=O)NCCC[C@@H]3NC(=O)[C@H](CCCNC(=N)N)NC(=O)[C@H](CCCNC(=N)N)NC(=O)[C@H](CCCNC(=N)N)NC(=O)[C@@H](Cc4c[nH]c5ccccc45)NC(=O)[C@H](Cc4c[nH]c5ccccc45)NC(=O)[C@H](Cc4c[nH]c5ccccc45)NC(=O)[C@H](Cc4c[nH]c5ccccc45)NC(=O)[C@H](CCCNC(=N)N)NC3=O)c(=O)c3cc(F)c(F)c(c32)O1
MIC [5]: 32 µg/mL (≈ 17.6 µM) | MIC [6]: 8 µg/mL (≈ 4.4 µM)

COc1c(N2CCN(C)CC2)c(F)cc2c(=O)c(C(=O)N[C@H]3[C@H](O)[C@@H](O)[C@H](CO)[C@H](O)[C@@H]3O)cn(C3CC3)c12
MIC [10]: 636 µM (≈ 350 µg/mL) | MIC [11]: < 9.9 µM | MIC [12]: 19.9 µM (≈ 11 µg/mL) | MIC [13]: 636 µM (≈ 350 µg/mL) | MIC [14]: 318 µM (≈ 175 µg/mL) | MIC [15]: 159 µM (≈ 87.5 µg/mL) | MIC [16]: 159 µM (≈ 87.5 µg/mL) | MIC [17]: 636 µM (≈ 350 µg/mL) | MIC [18]: 39.7 µM (≈ 21.9 µg/mL) | MIC [19]: 636 µM (≈ 350 µg/mL) | MIC [20]: 159 µM (≈ 87.5 µg/mL) | MIC [21]: 159 µM (≈ 87.5 µg/mL)

COC[C@@H]1[C@H](OC(C)=O)[C@H](OC(C)=O)[C@@H](NC(=O)c2cn(C3CC3)c3c(OC)c(N4CCN(C)CC4)c(F)cc3c2=O)[C@H](OC(C)=O)[C@H]1OC(C)=O
MIC [10]: 55.7 µM (≈ 40.8 µg/mL) | MIC [11]: 223 µM (≈ 163 µg/mL) | MIC [12]: 111 µM (≈ 81.6 µg/mL) | MIC [13]: 445 µM (≈ 326 µg/mL) | MIC [14]: 445 µM (≈ 326 µg/mL) | MIC [15]: 111 µM (≈ 81.6 µg/mL) | MIC [16]: 55.7 µM (≈ 40.8 µg/mL) | MIC [17]: 445 µM (≈ 326 µg/mL) | MIC [22]: 445 µM (≈ 326 µg/mL) | MIC [18]: 55.7 µM (≈ 40.8 µg/mL) | MIC [19]: 111 µM (≈ 81.6 µg/mL) | MIC [20]: 111 µM (≈ 81.6 µg/mL) | MIC [21]: 890 µM (≈ 652 µg/mL)

C[C@H]1Cn2cc(C(=O)NCCC(=O)NCCCCC[C@@H](N)C(=O)N[C@@H](CCCNC(=N)N)C(=O)N[C@@H](CCCNC(=N)N)C(=O)N[C@@H](CCCNC(=N)N)C(=O)N[C@@H](CCCNC(=N)N)C(=O)N[C@@H](Cc3c[nH]c4ccccc34)C(=O)N[C@@H](CCCNC(=N)N)C(=O)N[C@@H](Cc3c[nH]c4ccccc34)C(=O)N[C@@H](Cc3c[nH]c4ccccc34)C(=O)O)c(=O)c3cc(F)c(N4CCN(C)CC4)c(c32)O1
MIC [5]: > 128 µg/mL | MIC [6]: 64 µg/mL (≈ 33.4 µM)
